We go through 20 molecules from ChEMBL document CHEMBL1795251, “Structure-based design of thienobenzoxepin inhibitors of PI3-kinase” (Bioorg Med Chem Lett, 2011).

The target of data set [1] is Phosphatidylinositol 4,5-bisphosphate 3-kinase catalytic subunit alpha isoform (Homo sapiens, UniProt P42336).
Data set [2] is described as follows: in vivo. Particulars: rat, plasma, iv, 1 mg/kg.
Data set [3] in a line: in vivo. Particulars: mouse, plasma, iv, 1 mg/kg.
The subject of another data set is Hepatocyte. Briefly: Metabolic stability in cryopreserved human hepatocytes assessed as N-(2-chlorophenyl)-N-methyl-8-(1H-pyrazol-4-yl)-4,5-dihydrobenzo[b]thieno[2,3-d]oxepine-2-carboxamide formation. Format: ADME, cell-based.
Data set [4] is described as follows: Plasma protein binding in dog. Format: ADME, cell-free, Canis lupus familiaris. The conditions noted are these: read-out: PPB (converted).
Data set [5] deals with Mus musculus. Put plainly: Inhibition of PI3K pathway in nude mouse xenografted with HER2 expressing MCF7 assessed as reduction in phosphorylated AKT levels at 50 mg/kg, po administered as single dose after 6 hrs relative to control. The class given is functional, organism-based. The arrangement: dose 50 mg/kg.
The nature of data set [6]: AUC in dog at 2 mg/kg. Format: ADME, organism-based, Canis lupus familiaris. The arrangement: dose 2 mg/kg. Particulars: plasma.
Data set [7] can be described thus: AUC in rat at 100 mg/kg. The class given is ADME, organism-based. The arrangement: dose 100 mg/kg. The conditions noted are these: plasma.
A short description of data set [8]: AUC in mouse at 100 mg/kg. The arrangement: dose 100 mg/kg. The class given is ADME, organism-based. Particulars: plasma.
Data set [9] in a line: in vivo. Particulars: nude, mouse, tumor, po, 50 mg/kg.
Data set [10] concerns Mus musculus. Briefly: Inhibition of PI3K pathway in nude mouse xenografted with HER2 expressing MCF7 assessed as reduction in phosphorylated PRAS40 levels at 50 mg/kg, po administered as single dose after 6 hrs relative to control. The class given is functional, organism-based. The arrangement: dose 50 mg/kg.
Data set [11] in a line: Oral bioavailability in dog at 2 mg/kg. The class given is ADME, organism-based, Canis lupus familiaris. Particulars: in vivo.
The nature of data set [12]: in vivo. Particulars: nude, mouse, plasma, po, 50 mg/kg.
Data set [13] is described as follows: Plasma protein binding in rat. Format: ADME, cell-free. The conditions noted are these: read-out: PPB (converted).
Data set [14] in a line: Plasma protein binding in human. Format: ADME, cell-free. Particulars: read-out: PPB (converted).
Another data set deals with MCF7. Put plainly: Antiproliferative activity against human MCF7 cells. The class given is functional, cell-based.
Data set [15] is described as follows: Plasma clearance in rat at 100 mg/kg. The class given is ADME, organism-based. The arrangement: dose 100 mg/kg.
Data set [16] is described as follows: Plasma clearance in cynomolgus monkey. The class given is ADME, organism-based, Macaca fascicularis.
A short description of data set [17]: in vivo. The conditions noted are these: nude, mouse, plasma, po, 50 mg/kg. This is another data set of the same source.
For the next data set, the system named is PC-3. Put plainly: Antiproliferative activity against human PC3 cells. Format: functional, cell-based.
The subject of data set [18] is Mus musculus. Briefly: Inhibition of PI3K pathway in nude mouse xenografted with HER2 expressing MCF7 assessed as reduction in phosphorylated S6RP levels at 50 mg/kg, po administered as single dose after 6 hrs relative to control. Format: functional, organism-based. The arrangement: dose 50 mg/kg.
Data set [19] is described as follows: Oral bioavailability in rat at 100 mg/kg. Particulars: in vivo. The class given is ADME, organism-based.
Data set [20] is described as follows: Plasma clearance in mouse at 100 mg/kg. Format: ADME, organism-based. The arrangement: dose 100 mg/kg.
Data set [21] can be described thus: in vivo. Particulars: nude, mouse, tumor, po, 50 mg/kg. This is another data set of the same source.
For data set [22], the target named is DNA-dependent protein kinase catalytic subunit (Homo sapiens, UniProt P78527). Put plainly: Inhibition of DNA-PK.
The nature of data set [23]: Plasma protein binding in mouse. Format: ADME, cell-free. Particulars: read-out: PPB (converted).
Data set [24] can be described thus: Oral bioavailability in mouse at 100 mg/kg. Format: ADME, organism-based. The conditions noted are these: in vivo.
Data set [25] in a line: Plasma clearance in dog at 2 mg/kg. The arrangement: dose 2 mg/kg. Format: ADME, organism-based, Canis lupus familiaris.
The target of data set [26] is Serine/threonine-protein kinase mTOR (Homo sapiens, UniProt P42345). Briefly: Inhibition of mTOR.
A short description of data set [27]: Plasma protein binding in cynomolgus monkey. The class given is ADME, cell-free, Macaca fascicularis. The conditions noted are these: read-out: PPB.

The source made the active and inactive calls. The calls are words filed in the database; no cut-off is given here.

Sequence of Phosphatidylinositol 4,5-bisphosphate 3-kinase catalytic subunit alpha isoform (P42336 whole entry, canonical isoform): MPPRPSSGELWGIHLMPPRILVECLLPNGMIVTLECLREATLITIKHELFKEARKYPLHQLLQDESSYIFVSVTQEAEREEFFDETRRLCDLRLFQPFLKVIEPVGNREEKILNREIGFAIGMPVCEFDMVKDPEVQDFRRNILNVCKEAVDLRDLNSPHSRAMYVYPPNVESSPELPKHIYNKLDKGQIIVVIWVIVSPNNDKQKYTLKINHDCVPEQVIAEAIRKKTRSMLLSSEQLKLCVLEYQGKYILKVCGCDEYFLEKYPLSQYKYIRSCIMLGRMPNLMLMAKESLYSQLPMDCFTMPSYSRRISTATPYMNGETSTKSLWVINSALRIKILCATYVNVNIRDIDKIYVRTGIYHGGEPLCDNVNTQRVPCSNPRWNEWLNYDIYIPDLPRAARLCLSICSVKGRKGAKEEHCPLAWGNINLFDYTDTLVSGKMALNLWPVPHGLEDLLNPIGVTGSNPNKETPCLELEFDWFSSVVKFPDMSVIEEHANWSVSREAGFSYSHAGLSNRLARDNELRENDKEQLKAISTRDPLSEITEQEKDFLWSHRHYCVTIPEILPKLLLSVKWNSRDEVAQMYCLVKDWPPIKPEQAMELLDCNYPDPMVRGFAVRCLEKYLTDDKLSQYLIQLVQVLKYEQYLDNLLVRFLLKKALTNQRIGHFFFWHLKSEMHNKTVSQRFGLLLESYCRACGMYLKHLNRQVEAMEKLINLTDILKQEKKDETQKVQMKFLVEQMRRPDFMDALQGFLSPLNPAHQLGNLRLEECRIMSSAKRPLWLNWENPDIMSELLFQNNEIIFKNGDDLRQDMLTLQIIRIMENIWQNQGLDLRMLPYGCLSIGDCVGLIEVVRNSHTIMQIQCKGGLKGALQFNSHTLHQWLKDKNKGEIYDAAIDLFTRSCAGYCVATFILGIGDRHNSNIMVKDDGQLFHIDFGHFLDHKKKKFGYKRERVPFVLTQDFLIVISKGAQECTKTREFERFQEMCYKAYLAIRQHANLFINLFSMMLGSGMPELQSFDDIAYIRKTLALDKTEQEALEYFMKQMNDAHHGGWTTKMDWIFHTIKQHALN
Sequence of DNA-dependent protein kinase catalytic subunit (P78527 whole entry): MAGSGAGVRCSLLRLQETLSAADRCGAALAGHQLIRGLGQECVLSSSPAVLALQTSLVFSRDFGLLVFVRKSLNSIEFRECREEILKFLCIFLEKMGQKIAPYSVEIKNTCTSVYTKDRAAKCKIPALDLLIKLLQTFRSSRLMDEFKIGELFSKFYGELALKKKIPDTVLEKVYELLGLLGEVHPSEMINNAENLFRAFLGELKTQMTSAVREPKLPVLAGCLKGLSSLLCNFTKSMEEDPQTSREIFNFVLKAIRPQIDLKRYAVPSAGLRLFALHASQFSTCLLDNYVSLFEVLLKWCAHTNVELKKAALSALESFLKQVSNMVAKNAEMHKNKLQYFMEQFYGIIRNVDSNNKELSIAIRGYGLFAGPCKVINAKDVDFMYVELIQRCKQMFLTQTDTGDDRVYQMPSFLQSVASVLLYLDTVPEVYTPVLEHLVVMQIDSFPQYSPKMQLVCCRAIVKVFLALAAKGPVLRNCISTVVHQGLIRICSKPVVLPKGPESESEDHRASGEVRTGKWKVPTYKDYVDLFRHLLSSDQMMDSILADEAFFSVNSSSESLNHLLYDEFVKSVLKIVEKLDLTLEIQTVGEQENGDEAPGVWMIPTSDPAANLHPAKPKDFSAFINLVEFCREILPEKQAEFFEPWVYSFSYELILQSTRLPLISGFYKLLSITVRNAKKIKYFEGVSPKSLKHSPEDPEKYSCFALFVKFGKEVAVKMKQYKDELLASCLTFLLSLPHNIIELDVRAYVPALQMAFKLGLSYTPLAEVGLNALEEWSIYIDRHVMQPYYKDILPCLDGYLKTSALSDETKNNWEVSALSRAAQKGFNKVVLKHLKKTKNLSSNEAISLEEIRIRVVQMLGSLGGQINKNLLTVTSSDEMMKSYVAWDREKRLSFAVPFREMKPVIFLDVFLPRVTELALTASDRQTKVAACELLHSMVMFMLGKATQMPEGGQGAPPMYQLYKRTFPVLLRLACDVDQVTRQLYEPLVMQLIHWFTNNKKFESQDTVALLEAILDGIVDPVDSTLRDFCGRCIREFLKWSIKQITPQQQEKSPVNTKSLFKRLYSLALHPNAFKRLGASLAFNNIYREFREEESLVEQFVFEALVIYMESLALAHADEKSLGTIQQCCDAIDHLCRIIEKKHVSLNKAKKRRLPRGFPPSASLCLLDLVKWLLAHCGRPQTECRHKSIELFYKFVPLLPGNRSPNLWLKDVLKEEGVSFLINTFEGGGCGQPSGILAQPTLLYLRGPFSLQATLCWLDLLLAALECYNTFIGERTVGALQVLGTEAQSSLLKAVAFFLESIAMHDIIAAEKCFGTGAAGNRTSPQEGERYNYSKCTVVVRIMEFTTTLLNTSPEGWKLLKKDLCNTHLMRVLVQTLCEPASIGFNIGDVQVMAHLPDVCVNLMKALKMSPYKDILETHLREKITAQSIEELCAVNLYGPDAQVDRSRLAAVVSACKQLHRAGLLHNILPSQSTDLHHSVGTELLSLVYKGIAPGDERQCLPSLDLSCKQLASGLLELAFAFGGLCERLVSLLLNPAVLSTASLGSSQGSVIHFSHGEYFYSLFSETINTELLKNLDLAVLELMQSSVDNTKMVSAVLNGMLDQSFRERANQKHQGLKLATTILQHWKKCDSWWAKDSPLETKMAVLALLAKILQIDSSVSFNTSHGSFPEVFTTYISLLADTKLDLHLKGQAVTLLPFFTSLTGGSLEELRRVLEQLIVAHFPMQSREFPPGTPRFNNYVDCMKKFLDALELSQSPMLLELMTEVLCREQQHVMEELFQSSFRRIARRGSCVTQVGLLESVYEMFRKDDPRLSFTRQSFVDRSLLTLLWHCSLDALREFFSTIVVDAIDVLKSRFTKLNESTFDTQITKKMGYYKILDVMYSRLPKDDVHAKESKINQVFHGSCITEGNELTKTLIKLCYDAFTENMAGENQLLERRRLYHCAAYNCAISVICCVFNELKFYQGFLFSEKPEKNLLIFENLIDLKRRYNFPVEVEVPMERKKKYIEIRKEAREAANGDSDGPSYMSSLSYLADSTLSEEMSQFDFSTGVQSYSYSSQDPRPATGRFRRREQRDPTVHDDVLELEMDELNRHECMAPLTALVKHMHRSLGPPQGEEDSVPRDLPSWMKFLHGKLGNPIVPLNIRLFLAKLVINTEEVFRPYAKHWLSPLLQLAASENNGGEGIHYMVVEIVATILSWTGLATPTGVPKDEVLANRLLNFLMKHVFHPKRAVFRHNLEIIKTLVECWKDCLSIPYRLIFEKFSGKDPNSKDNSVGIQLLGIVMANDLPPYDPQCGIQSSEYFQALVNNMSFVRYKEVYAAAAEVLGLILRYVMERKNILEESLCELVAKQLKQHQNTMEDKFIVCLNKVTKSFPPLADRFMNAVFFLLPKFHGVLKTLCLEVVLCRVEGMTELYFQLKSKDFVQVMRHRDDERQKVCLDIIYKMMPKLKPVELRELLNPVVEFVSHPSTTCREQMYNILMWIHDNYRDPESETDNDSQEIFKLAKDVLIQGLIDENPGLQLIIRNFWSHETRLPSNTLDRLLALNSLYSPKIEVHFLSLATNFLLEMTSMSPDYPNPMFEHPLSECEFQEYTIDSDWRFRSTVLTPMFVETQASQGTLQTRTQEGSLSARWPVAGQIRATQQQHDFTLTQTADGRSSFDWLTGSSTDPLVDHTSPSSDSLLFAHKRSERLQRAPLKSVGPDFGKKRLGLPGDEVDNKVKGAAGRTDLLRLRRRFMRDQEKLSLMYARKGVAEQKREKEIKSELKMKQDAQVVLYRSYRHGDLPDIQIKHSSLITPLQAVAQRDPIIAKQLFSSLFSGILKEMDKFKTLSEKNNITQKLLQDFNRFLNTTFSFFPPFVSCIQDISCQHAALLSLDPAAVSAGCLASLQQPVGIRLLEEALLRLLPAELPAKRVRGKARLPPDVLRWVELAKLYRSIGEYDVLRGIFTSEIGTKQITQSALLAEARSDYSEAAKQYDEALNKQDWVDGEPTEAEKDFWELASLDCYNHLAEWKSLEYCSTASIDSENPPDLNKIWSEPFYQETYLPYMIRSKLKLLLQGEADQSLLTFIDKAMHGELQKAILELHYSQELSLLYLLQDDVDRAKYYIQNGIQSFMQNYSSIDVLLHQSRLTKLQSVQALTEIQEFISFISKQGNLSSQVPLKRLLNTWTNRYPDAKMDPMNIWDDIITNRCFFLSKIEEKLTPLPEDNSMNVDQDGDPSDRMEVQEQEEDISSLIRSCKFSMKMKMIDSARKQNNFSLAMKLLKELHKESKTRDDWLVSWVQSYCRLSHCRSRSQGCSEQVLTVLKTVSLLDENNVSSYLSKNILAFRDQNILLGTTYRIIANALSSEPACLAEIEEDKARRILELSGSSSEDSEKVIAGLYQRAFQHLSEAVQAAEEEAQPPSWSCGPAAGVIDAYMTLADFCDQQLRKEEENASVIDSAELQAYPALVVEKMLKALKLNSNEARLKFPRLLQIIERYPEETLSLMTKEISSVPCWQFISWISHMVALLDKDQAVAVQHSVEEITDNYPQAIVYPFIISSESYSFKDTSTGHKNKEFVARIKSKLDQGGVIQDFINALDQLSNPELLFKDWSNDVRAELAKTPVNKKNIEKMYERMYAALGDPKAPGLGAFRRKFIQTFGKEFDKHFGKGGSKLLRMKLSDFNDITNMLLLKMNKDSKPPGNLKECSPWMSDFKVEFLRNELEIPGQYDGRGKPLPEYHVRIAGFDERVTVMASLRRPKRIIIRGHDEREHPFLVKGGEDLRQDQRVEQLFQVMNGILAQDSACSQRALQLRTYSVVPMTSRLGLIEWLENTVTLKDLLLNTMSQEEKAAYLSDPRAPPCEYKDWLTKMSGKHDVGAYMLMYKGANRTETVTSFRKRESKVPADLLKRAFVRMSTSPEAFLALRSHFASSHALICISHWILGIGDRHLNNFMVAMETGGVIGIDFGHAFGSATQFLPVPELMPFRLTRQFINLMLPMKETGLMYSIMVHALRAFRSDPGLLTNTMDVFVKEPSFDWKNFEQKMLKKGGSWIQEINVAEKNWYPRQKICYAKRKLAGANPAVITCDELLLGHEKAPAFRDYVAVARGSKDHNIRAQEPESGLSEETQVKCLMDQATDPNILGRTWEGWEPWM

The IC50 is the point on the concentration scale where inhibition reaches its midpoint. Consider `CN(C(=O)c1cc2c(s1)-c1ccccc1OC2)c1cccc(F)c1`, for which the IC50 in data set [1] came out at 1 µM.

One may read the clearance as the rate of elimination divided by the concentration. With `CNC(=O)c1ccc2c(c1)OCCc1cc(C(=O)N(C)c3cc(C(=O)N(C)C)ccc3Cl)sc1-2`, the figures for the clearance in “in vivo [2]” and in “in vivo [3]” were 3.96 L/h/kg and 3.3 L/h/kg, respectively.

The term Ki denotes the equilibrium dissociation constant of an inhibitor or competing ligand from its target. In data set [1], `CNC(=O)c1ccc(N(C)C(=O)c2cc3c(s2)-c2ccc(C(=O)NC)cc2OCC3)c(Cl)c1` had a Ki of 0.0025 µM. In addition, the clearance in “in vivo [2]” stood at 1.68 L/h/kg; in “in vivo [3]” it was 1.44 L/h/kg.

`CN(C(=O)c1cc2c(s1)-c1ccc(C(=O)N3CCOCC3)cc1OCC2)c1ccccc1Cl` came in with a Ki in data set [1] of 0.031 µM.

`COc1ccccc1N(C)C(=O)c1cc2c(s1)-c1ccccc1OC2` yielded an IC50 in data set [1] of 0.673 µM.

As to `CC(C)N(C)C(=O)c1cc2c(s1)-c1ccccc1OC2`, in [1], the IC50 came to 5.2 µM.

In the case of `CNC(=O)c1ccc2c(c1)OCCc1cc(C(=O)N(C)c3ccccc3Cl)sc1-2`, in the data set on Hepatocyte, the Stability came out at 5 µM.

In the case of `Cc1ccccc1N(C)C(=O)c1cc2c(s1)-c1ccccc1OC2`, in data set [1], 0.699 µM corresponded to half-maximal inhibition (IC50).

`CN(C(=O)c1cc2c(s1)-c1ccc(-c3cn[nH]c3)cc1OCC2)c1ccncc1Cl` showed a Ki in data set [1] of 0.065 µM.

With `COC(=O)Nc1ccc2c(c1)OCCc1cc(C(=O)N(C)c3ccccc3Cl)sc1-2`, in data set [1], the affinity, expressed as Ki, was 0.0015 µM. The clearance in the data set “in vivo [2]” is 2.64 L/h/kg.

With `CN(C(=O)c1cc2c(s1)-c1ccccc1OC2)c1ccccn1`, the IC50 in data set [1] is > 10 µM.

In [1], `CN(C(=O)c1cc2c(s1)-c1ccc(C(N)=O)cc1OCC2)c1ccccc1Cl` displayed a Ki of 0.0012 µM. Besides, the clearance in “in vivo [2]” turned out to be 5.34 L/h/kg.

A word on the AUC: it is the area under the concentration-time curve, a measure of exposure. For orientation: EC50 means the concentration that produces a half-maximal response. As for `CNC(=O)c1ccc2c(c1)OCCc1cc(C(=O)N(C)c3ccc(C(=O)N(C)C)cc3Cl)sc1-2`, the fraction unbound in data set [4] was 0.07; in data set [13], 0.03; in [14] it was 0.03; in data set [23], 0.02; in [27] it was 0.09. Further, the inhibition entry in the data set with Mus musculus [5], in the data set with Mus musculus [10] and in the data set on Mus musculus [18] was “Active” each time. Also, the AUC in data set [6] came to 17 µM·h; in [7], 39 µM·h; in data set [8] it was 330 µM·h. For the same molecule, the clearance in the data set “in vivo [2]” turned out to be 2.16 L/h/kg; in the data set “in vivo [3]”, 0.9 L/h/kg; in [15] it was 2.16 L/h/kg; in [16] it was 0.6 L/h/kg; in data set [20] it was 0.9 L/h/kg; in [25], 0.3 L/h/kg. In addition, the concentration at 6 h in “in vivo [9]” worked out at 2.24 µM; in the data set “in vivo [12]”, 11.1 µM. Moreover, the bioavailability came to 120% in [11], 50% in [19] and 28% in [24]. Also, the EC50 in the data set on MCF7 is 0.256 µM; in the data set on PC-3, 0.55 µM. For the same molecule, the concentration at 1 h was 7.38 µM in the data set “in vivo [17]” and 1.08 µM in the data set “in vivo [21]”. In addition, the IC50 was 0.006 µM in data set [22] and 0.53 µM in [26].

Regarding `CC(C)CN(C)C(=O)c1cc2c(s1)-c1ccccc1OC2`, inhibition in [1] was half-maximal at 17 µM (IC50).

`CN(C(=O)c1cc2c(s1)-c1ccccc1OCC2)c1ccccc1Cl` came in with a clearance in “in vivo [2]” of 3.6 L/h/kg.

`CN(C(=O)c1cc2c(s1)-c1ccccc1OC2)c1ccc(F)cc1`: the IC50 in data set [1] was found to be 1 µM.

`CN(C(=O)c1cc2c(s1)-c1ccc(-c3cn[nH]c3)cc1OCC2)c1ccccc1Cl` came in with an inhibition constant Ki in data set [1] of 0.0006 µM.

`CN(C(=O)c1cc2c(s1)-c1ccccc1OCC2)c1ccncc1Cl` registered a Ki in [1] of 0.473 µM. In the data set “in vivo [2]”, this molecule had a clearance of 1.38 L/h/kg.

As to `CNC(=O)c1ccc2c(c1)OCCc1cc(C(=O)N(C)c3ccc(F)cc3Cl)sc1-2`, the clearance in the data set “in vivo [2]” is 9.18 L/h/kg; in “in vivo [3]”, 10.9 L/h/kg.

Consider `CN(C(=O)c1cc2c(s1)-c1ccccc1OCCC2)c1ccccc1Cl`, for which, in data set [1], the IC50 was > 10 µM.
